# Experimental data from patent publication US20160106721A1, “HUMAN THERAPEUTIC AGENTS” (Life Plus, LLC, priority 2014, published 2016).
# How the values were obtained:
# [1] = tested on: human lung cancer cells (H358); experiment: cell death in lung cancer spheroids; assay type: cell-based; conditions: 24 hour exposure, increasing doses
# Experimental: (§1) The respective cells were individually cultured in a growth medium prepared using RPMI-1640 medium containing 11.1 mM D-glucose with 10% fetal bovine serum, 10 mM HEPES, 2 mM L-glutamine, 1 mM sodium pyruvate, 0.05 mM 2-mercaptoethanol, and Antibiotic-Antimycotic. These cells were maintained in T75 tissue culture flasks in a humidified incubator at 37° C. and 5% CO2. The media were changed on a third day after cell plating, and the cells were passaged on day 5 by trypsinization.
# (§2) Custom-made micromolds with 100 μm diameter wells were loaded with the cells (U.S. Pat. No. 8,735,154, incorporated by reference herein). The media were changed every day by partial replacement. Cell aggregates were allowed to form in the micromolds for 72 hours and then were transferred to a 100 mm non-treated tissue culture dishes for 3 additional days. The spheroids were passed through 70 μm and 100 μm cell strainers (#3431751 and #43152, Corning, Tewksbury, Mass.) and maintained in HEPES Balanced Salt Solution comprised of: 20 mM HEPES, 114 mM NaCl, 4.7 mM KCl, 1.2 mM KH2PO4, 1.16 mM MgSO4, 2.5 mM CaCl2, 25.5 mM NaHCO3 and 0.2% bovine serum albumin (fatty acid free), pH 7.2.
# The lymphomas treatment methods used were identical to those described in Example 2 relative to the pediatric leukemia cells, whereas the lung cancer treatment method was the same as described in Example 1.
# [2] = tested on: human ovarian cancer cells (A1847); experiment: cell death in ovarian cancer spheroids; assay type: cell-based; conditions: 24 hour exposure, increasing doses
# Experimental: as §1, §2
# (§3) The cells were treated and tested as set forth in Example 1.
# [3] = tested on: human prostate cancer cells (22rv1); experiment: cell death in prostate cancer spheroids; assay type: cell-based; conditions: 24 hour exposure, increasing doses
# Experimental: as §1, §2, §3
# ovarian cancer cells = conditions: low doses of doxorubicin alone (up to 0.158 μM)
# Experimental: In this test, the synergism of GZ17-6.02 with doxorubicin (a common chemotherapy drug) was tested on ovarian cancer cells. In this test, increasing doses of doxorubicin were administered to ovarian cancer spheroids and cell deaths were measured, as described in Example 1. The protocol involved testing doxorubicin alone at various dosages (FIG. 8, doxorubicin alone—closed circles), with comparative tests using the various dosages of doxorubicin in combination with either 0.2 mg/mL (FIG. 8 open circles) or 0.4 mg/mL (FIG. 8 closed triangles) GZ17-6.02. Additionally, the induced cell death results from use of 0.2 mg/mL GZ17-6.02 alone (FIG. 8, line A) and 0.4 mg/mL GZ17-6.02 alone (FIG. 8, line B) were determined.
compound,measurement,setting,value
CC1=NCCc2c1[nH]c1cc(O)ccc21.Cl [harmalol hydrochloride],cell death / anticancer effect (cell number),[1],demonstrated anticancer effects
same,cell death / anticancer effect (cell number),[2],demonstrated anticancer effects
same,cell death / anticancer effect (cell number),[3],demonstrated anticancer effects
COc1cccc2c1C(=O)c1c(O)c3c(c(O)c1C2=O)C[C@@](O)(C(=O)CO)C[C@@H]3O[C@H]1C[C@H](N)[C@H](O)[C@H](C)O1 [doxorubicin],"cell death, doxorubicin alone",ovarian cancer cells,ineffective
COc1ccc2c3c([nH]c2c1)C(C)=NCC3 [harmaline],cell death / anticancer effect (cell number),[1],demonstrated anticancer effects
same,cell death / anticancer effect (cell number),[2],demonstrated anticancer effects
same,cell death / anticancer effect (cell number),[3],demonstrated anticancer effects
COc1ccc2c3c([nH]c2c1)[C@@H](C)NCC3 [tetrahydro-harmine],cell death / anticancer effect (cell number),[1],demonstrated anticancer effects
same,cell death / anticancer effect (cell number),[2],demonstrated anticancer effects
same,cell death / anticancer effect (cell number),[3],demonstrated anticancer effects
COc1cc(C=O)ccc1O [vanillin],cell death / anticancer effect (cell number),[1],demonstrated anticancer effects
same,cell death / anticancer effect (cell number),[2],demonstrated anticancer effects
same,cell death / anticancer effect (cell number),[3],demonstrated anticancer effects
COc1ccc(C(=O)O)cc1O [isovanillic acid],cell death / anticancer effect (cell number),[1],demonstrated anticancer effects
same,cell death / anticancer effect (cell number),[2],demonstrated anticancer effects
same,cell death / anticancer effect (cell number),[3],demonstrated anticancer effects
COc1cccc(C=O)c1O [O-vanillin],cell death / anticancer effect (cell number),[1],demonstrated anticancer effects
same,cell death / anticancer effect (cell number),[2],demonstrated anticancer effects
same,cell death / anticancer effect (cell number),[3],demonstrated anticancer effects
COc1ccc(CO)cc1O [isovanillyl alcohol],cell death / anticancer effect (cell number),[1],demonstrated anticancer effects
same,cell death / anticancer effect (cell number),[2],demonstrated anticancer effects
same,cell death / anticancer effect (cell number),[3],demonstrated anticancer effects
Cc1nccc2c1[nH]c1cc(O)ccc12.Cl [harmole hydrochloride],cell death / anticancer effect (cell number),[1],demonstrated anticancer effects
same,cell death / anticancer effect (cell number),[2],demonstrated anticancer effects
same,cell death / anticancer effect (cell number),[3],demonstrated anticancer effects
